Reference: ChEMBL document CHEMBL1155140, “Differentially expressed proteins in derivatives of Candida albicans displaying a stable histatin 3-resistant phenotype” (2007)
Activity calls are given as the source filed them. No cut-off for these calls is given here.

Assays:
Candida albicans [1] = experiment: Antifungal activity against histatin-resistant Candida albicans CAHR1 at 0.2 mg/mL measured after storage at -80 degC for 1 year; type: functional
Candida albicans [2] = experiment: Antifungal activity against histatin-resistant Candida albicans CAHR4 at 0.2 mg/mL measured after storage at -80 degC for 1 year; type: functional
Candida albicans [3] = experiment: Antifungal activity against histatin-susceptible Candida albicans CA132A at 0.2 mg/mL; type: functional
Candida albicans [4] = experiment: Antifungal activity against histatin-resistant Candida albicans CAHR04A at 0.2 mg/mL; type: functional
Candida albicans [5] = experiment: Antifungal activity against histatin-resistant Candida albicans CAHR04B at 0.2 mg/mL; type: functional
Candida albicans [6] = experiment: Antifungal activity against histatin-resistant Candida albicans CAHR04U at 0.2 mg/mL; type: functional
Candida albicans [7] = experiment: Reduction of TRK1 gene expression in histatin-resistant Candida albicans CAHR04A; type: functional
Candida albicans [8] = experiment: Reduction of TRK1 gene expression in histatin-resistant Candida albicans CAHR04B; type: functional
Candida albicans [9] = experiment: Reduction of ATP release in histatin-resistant Candida albicans CAHR04A at 0.2 mg/mL after 45 mins
Candida albicans [10] = experiment: Reduction of ATP release in histatin-resistant Candida albicans CAHR04B at 0.2 mg/mL after 45 mins
Candida albicans [11] = experiment: Reduction of ATP release in histatin-resistant Candida albicans CAHR04U at 0.2 mg/mL after 45 mins

## CC(C)C[C@H](NC(=O)[C@H](Cc1ccc(O)cc1)NC(=O)[C@H](CC(N)=O)NC(=O)[C@H](CO)NC(=O)[C@H](CCCNC(=N)N)NC(=O)[C@H](Cc1ccc(O)cc1)NC(=O)CNC(=O)[C@H](CCCNC(=N)N)NC(=O)[C@H](Cc1cnc[nH]1)NC(=O)[C@H](CO)NC(=O)[C@H](Cc1cnc[nH]1)NC(=O)[C@H](Cc1cnc[nH]1)NC(=O)[C@H](CCCCN)NC(=O)[C@H](CCC(=O)O)NC(=O)[C@H](Cc1cnc[nH]1)NC(=O)[C@H](Cc1ccccc1)NC(=O)[C@H](CCCCN)NC(=O)[C@H](CCCNC(=N)N)NC(=O)[C@H](CCCCN)NC(=O)[C@H](Cc1ccc(O)cc1)NC(=O)CNC(=O)[C@H](Cc1cnc[nH]1)NC(=O)[C@H](Cc1cnc[nH]1)NC(=O)[C@H](CCCNC(=N)N)NC(=O)[C@H](CCCCN)NC(=O)[C@H](C)NC(=O)[C@H](Cc1cnc[nH]1)NC(=O)[C@H](CO)NC(=O)[C@@H](N)CC(=O)O)C(=O)N[C@@H](Cc1ccc(O)cc1)C(=O)N[C@@H](CC(=O)O)C(=O)N[C@@H](CC(N)=O)C(=O)O [Histatin 3]
Candida albicans [1]
  Activity: 86.4%
Candida albicans [2]
  Activity: 94.4%
Candida albicans [3]
  Activity: 91.7%
Candida albicans [4]
  Activity: 17.9%
Candida albicans [5]
  Activity: 17.9%
Candida albicans [6]
  Activity: 17.9%
Candida albicans [7]
  Activity: Active
  fold change (FC): 2
Candida albicans [8]
  fold change (FC): 1.6
Candida albicans [9]
  Activity: Active
Candida albicans [10]
  Activity: Active
Candida albicans [11]
  Activity: Active
